Measurements as given in ChEMBL document CHEMBL5512607, “Journey of Von Hippel-Lindau (VHL) E3 ligase in PROTACs design: From VHL ligands to VHL-based degraders” (Eur J Med Chem, 2024).

How the values were obtained:
[1] = target: T1, von Hippel-Lindau disease tumor suppressor/Androgen receptor (Homo sapiens, UniProt P10275+P40337); experiment: PROTAC activity at VHL/AR-V7 in human 22Rv1 cells assessed as induction of AR degradation by Western blot analysis; type: cell-based
[2] = target: T1, von Hippel-Lindau disease tumor suppressor/Androgen receptor; experiment: PROTAC activity at VHL/AR in human VCaP cells assessed as induction of AR degradation by Western blot analysis; type: cell-based
Target sequence in this assay (P10275 whole entry): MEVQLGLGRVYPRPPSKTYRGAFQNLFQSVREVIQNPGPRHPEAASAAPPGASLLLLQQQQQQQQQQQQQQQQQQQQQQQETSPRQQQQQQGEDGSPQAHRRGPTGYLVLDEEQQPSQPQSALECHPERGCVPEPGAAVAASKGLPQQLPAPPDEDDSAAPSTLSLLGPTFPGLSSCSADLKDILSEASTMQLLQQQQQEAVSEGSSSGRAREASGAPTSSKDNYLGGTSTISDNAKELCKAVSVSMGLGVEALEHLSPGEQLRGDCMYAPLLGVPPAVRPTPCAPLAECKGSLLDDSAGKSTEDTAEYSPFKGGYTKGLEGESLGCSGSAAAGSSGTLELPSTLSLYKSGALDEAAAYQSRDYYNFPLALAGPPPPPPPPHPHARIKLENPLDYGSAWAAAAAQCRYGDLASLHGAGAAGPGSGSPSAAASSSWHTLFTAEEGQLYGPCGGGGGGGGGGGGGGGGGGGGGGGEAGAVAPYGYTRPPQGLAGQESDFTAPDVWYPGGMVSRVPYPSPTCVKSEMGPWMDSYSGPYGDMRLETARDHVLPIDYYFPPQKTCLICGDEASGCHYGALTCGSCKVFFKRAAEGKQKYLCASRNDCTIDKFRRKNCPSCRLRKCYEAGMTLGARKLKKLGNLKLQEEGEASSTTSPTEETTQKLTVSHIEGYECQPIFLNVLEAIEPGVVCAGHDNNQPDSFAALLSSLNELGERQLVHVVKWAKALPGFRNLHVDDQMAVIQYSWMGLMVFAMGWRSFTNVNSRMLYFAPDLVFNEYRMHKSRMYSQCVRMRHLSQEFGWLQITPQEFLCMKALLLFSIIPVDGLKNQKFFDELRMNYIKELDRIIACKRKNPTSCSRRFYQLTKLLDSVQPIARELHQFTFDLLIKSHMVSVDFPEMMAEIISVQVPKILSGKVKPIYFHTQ
Target sequence in this assay (P40337 whole entry): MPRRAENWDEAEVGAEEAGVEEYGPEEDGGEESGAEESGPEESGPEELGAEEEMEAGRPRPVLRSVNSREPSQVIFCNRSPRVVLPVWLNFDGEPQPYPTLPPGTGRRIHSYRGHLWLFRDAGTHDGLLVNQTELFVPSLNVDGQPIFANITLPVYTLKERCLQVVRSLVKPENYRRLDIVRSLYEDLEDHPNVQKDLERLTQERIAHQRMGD

[3] = target: T2, von Hippel-Lindau disease tumor suppressor/Estrogen receptor (Homo sapiens, UniProt P03372+P40337); experiment: PROTAC activity at VHL E3 ligase/ERalpha in human T47D cells assessed as maximal degradation of ERalpha protein level at 7.7 nM by Western blot analysis relative to control; type: cell-based
T2 sequence (P03372 whole entry, looked up): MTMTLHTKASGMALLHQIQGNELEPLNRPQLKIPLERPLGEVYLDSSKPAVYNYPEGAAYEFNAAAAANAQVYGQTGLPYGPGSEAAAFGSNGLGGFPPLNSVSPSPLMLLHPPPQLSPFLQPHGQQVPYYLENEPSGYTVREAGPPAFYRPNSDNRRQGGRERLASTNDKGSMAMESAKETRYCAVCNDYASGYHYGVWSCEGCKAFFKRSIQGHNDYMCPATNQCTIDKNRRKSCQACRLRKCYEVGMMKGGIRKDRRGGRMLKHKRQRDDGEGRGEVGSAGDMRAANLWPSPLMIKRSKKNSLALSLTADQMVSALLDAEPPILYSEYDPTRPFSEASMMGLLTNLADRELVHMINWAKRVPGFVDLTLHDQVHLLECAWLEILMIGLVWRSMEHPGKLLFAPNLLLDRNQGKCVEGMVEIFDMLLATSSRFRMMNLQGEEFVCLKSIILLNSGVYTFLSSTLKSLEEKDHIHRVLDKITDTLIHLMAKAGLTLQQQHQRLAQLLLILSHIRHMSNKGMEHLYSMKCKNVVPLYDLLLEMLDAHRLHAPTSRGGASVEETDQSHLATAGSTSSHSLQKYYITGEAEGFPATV
T2 sequence (P40337 whole entry, looked up): as the sequence (P40337 whole entry) above

[4] = target: T2, von Hippel-Lindau disease tumor suppressor/Estrogen receptor; experiment: PROTAC activity at VHL E3 ligase/ERalpha in human T47D cells assessed as maximal degradation of ERalpha protein level at 10.3 nM by Western blot analysis relative to control; type: cell-based
[5] = target: T3, von Hippel-Lindau disease tumor suppressor (Homo sapiens, UniProt P40337); experiment: Binding affinity to VHL (unknown origin) assessed as dissociation constant by fluorescence polarization assay
T3 sequence (P40337 whole entry, the tested form may be a part): as the sequence (P40337 whole entry) above

[6] = target: Von Hippel-Lindau disease tumor suppressor/Elongin B/Elongin C (Homo sapiens, UniProt P40337); experiment: Inhibition of VHL (unknown origin) (1 to 213 residues)/ElonginC/ElonginB expressed in Escherichia coli BL21 (DE3) using (FAM)-labeled HIF-1alpha peptide as substrate incubated for 2 hrs by fluorescence polarization assay
Sequence of Von Hippel-Lindau disease tumor suppressor/Elongin B/Elongin C (P40337 whole entry, looked up, the tested form may be a part): as the sequence (P40337 whole entry) above

[7] = target: T1, von Hippel-Lindau disease tumor suppressor/Androgen receptor; experiment: PROTAC activity at VHL/AR in human LNCaP cells assessed as maximum degradation of AR at 75 uM incubated for 16 hrs by Western blot analysis relative to control; type: cell-based
[8] = target: T1, von Hippel-Lindau disease tumor suppressor/Androgen receptor; experiment: PROTAC activity at VHL/AR in human LNCaP cells assessed as induction of AR degradation by Western blot analysis; type: cell-based
Target sequence in this assay (P10275 whole entry): as the sequence (P10275 whole entry) above
Target sequence in this assay (P40337 whole entry): as the sequence (P40337 whole entry) above

[9] = target: T4, von Hippel-Lindau disease tumor suppressor/Epidermal growth factor receptor (Homo sapiens, UniProt P00533+P40337); experiment: PROTAC activity at VHL/wild type EGFR in human OVCAR-8 cells assessed as protein degradation incubated for 24 hrs by immunoblot analysis; type: cell-based
[10] = tested on: von Hippel-Lindau disease tumor suppressor/Epidermal growth factor receptor (Homo sapiens), P00533+P40337 [UNDEFINED MUTATION]; experiment: PROTAC activity at VHL/EGFR Ex20ins mutant in human HeLa cells assessed as maximal degradation incubated for 24 hrs by immunoblot analysis relative to control; type: cell-based
[11] = target: T4, von Hippel-Lindau disease tumor suppressor/Epidermal growth factor receptor; experiment: PROTAC activity at VHL/wild type EGFR in human OVCAR-8 cells assessed as maximal degradation incubated for 24 hrs by immunoblot analysis relative to control; type: cell-based
[12] = target: T4, von Hippel-Lindau disease tumor suppressor/Epidermal growth factor receptor; experiment: PROTAC activity at VHL/EGFR Ex20ins mutant in human HeLa cells assessed as protein degradation incubated for 24 hrs by immunoblot analysis; type: cell-based
[13] = target: T3, von Hippel-Lindau disease tumor suppressor; experiment: Inhibition of NanoLuc-fused VHL (unknown origin) transfected in live HEK293 cells using NanoGlo as substrate incubated for 1 hrs by tracer based NanoBRET assay; type: cell-based
[14] = target: T3, von Hippel-Lindau disease tumor suppressor; experiment: Binding affinity to NanoLuc-fused VHL (unknown origin) transfected in live HEK293 cells using NanoGlo as substrate assessed as dissociation constant incubated for 1 hrs by tracer based NanoBRET assay; type: cell-based
[15] = target: T3, von Hippel-Lindau disease tumor suppressor; experiment: Inhibition of VHL (unknown origin)
[16] = target: von Hippel-Lindau disease tumor suppressor/Bromodomain-containing protein 4 (Homo sapiens, UniProt O60885+P40337); experiment: PROTAC activity at human VHL/BRD4 in human HeLa cells assessed as degradation of BRD4 incubated for 24 hrs by Western blot analysis; type: cell-based
Sequence of von Hippel-Lindau disease tumor suppressor/Bromodomain-containing protein 4 (Homo sapiens, UniProt O60885+P40337) (P40337 whole entry, looked up, other chains not shown): as the sequence (P40337 whole entry) above

[17] = target: T5, von Hippel-Lindau disease tumor suppressor/Bromodomain-containing protein 2 (Homo sapiens, UniProt P25440+P40337); experiment: PROTAC activity at human VHL/BRD2 in human HeLa cells assessed as […] incubated for 16 hrs by Western blot analysis; type: cell-based
Target sequence in this assay (P25440 whole entry): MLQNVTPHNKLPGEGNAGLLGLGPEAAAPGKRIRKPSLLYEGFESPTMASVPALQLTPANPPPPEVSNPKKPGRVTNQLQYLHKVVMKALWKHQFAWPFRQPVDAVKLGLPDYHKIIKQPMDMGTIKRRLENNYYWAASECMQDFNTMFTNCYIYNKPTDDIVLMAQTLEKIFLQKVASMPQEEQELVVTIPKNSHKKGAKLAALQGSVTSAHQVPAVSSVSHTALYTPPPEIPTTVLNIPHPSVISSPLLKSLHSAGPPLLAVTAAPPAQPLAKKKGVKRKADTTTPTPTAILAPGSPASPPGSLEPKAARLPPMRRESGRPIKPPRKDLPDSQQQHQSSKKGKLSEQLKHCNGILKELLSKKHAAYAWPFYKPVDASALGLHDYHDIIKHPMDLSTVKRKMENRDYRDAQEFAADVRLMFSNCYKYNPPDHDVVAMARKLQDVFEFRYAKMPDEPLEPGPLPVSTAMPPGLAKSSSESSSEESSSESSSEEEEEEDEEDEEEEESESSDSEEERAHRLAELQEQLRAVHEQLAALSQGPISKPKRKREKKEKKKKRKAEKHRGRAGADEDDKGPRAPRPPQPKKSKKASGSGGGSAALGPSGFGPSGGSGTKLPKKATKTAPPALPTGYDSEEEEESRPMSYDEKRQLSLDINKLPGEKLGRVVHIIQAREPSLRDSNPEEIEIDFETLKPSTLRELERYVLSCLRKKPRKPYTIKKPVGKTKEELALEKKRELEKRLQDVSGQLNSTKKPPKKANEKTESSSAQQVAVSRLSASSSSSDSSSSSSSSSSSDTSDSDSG
Target sequence in this assay (P40337 whole entry): as the sequence (P40337 whole entry) above

[18] = tested on: von Hippel-Lindau disease tumor suppressor/Bromodomain-containing protein 4; experiment: PROTAC activity at human VHL/BRD4 in human HeLa cells assessed as maximum degradation of BRD4 measured after 18 hrs by Western blot analysis relative to control
[19] = target: T6, von Hippel-Lindau disease tumor suppressor/Bromodomain-containing protein 3 (Homo sapiens, UniProt Q15059+P40337); experiment: PROTAC activity at human VHL/BRD3 in human HeLa cells assessed as […] incubated for 16 hrs by Western blot analysis; type: cell-based
Target sequence in this assay (Q15059 whole entry): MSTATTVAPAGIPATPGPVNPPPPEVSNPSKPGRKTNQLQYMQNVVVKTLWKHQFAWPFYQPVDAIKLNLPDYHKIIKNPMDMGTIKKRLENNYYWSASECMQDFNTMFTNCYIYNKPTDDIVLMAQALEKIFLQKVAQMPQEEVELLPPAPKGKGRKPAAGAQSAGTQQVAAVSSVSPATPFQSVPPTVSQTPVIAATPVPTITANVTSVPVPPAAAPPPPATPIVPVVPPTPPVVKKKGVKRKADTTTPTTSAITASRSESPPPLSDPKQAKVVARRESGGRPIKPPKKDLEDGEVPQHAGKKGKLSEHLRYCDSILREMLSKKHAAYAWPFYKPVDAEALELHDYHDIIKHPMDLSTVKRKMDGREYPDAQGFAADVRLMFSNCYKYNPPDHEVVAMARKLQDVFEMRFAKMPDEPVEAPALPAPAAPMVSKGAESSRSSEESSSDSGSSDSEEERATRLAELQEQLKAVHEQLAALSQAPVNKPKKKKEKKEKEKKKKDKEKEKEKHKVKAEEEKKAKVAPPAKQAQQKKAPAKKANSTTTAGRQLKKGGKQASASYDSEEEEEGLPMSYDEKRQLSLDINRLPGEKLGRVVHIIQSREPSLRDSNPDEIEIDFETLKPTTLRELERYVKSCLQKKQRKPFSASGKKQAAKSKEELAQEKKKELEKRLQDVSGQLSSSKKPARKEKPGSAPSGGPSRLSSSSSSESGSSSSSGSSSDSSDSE
Target sequence in this assay (P40337 whole entry): as the sequence (P40337 whole entry) above

[20] = PROTAC activity at human VHL/BRD4 in human HeLa cells assessed as degradation of BRD4 incubated for 16 hrs by Western blot analysis
[21] = target: T5, von Hippel-Lindau disease tumor suppressor/Bromodomain-containing protein 2; experiment: PROTAC activity at human VHL/BRD2 in human HeLa cells assessed as maximum degradation of BRD2 measured after 18 hrs by Western blot analysis relative to control; type: cell-based
[22] = target: T6, von Hippel-Lindau disease tumor suppressor/Bromodomain-containing protein 3; experiment: PROTAC activity at human VHL/BRD3 in human HeLa cells assessed as maximum degradation of BRD3 measured after 18 hrs by Western blot analysis relative to control; type: cell-based
[23] = target: T6, von Hippel-Lindau disease tumor suppressor/Bromodomain-containing protein 3; experiment: PROTAC activity at VHL/BRD3 in human 22Rv1 cells assessed as induction of BRD3 degradation by Immunoblot analysis; type: cell-based
Target sequence in this assay (Q15059 whole entry): as the sequence (Q15059 whole entry) above
Target sequence in this assay (P40337 whole entry): as the sequence (P40337 whole entry) above

[24] = tested on: von Hippel-Lindau disease tumor suppressor/Bromodomain-containing protein 4; experiment: PROTAC activity at VHL/BRD4 in human VCaP cells assessed as maximum degradation of BRD4 by Western blot analysis relative to control
[25] = target: von Hippel-Lindau disease tumor suppressor/Bromodomain-containing protein 4; experiment: PROTAC activity at VHL/BRD4 in human 22Rv1 cells assessed as induction of BRD4 degradation by Immunoblot analysis
[26] = target: T5, von Hippel-Lindau disease tumor suppressor/Bromodomain-containing protein 2; experiment: PROTAC activity at VHL/BRD2 in human 22Rv1 cells assessed as induction of BRD2 degradation by Immunoblot analysis; type: cell-based
Target sequence in this assay (P25440 whole entry): as the sequence (P25440 whole entry) above
Target sequence in this assay (P40337 whole entry): as the sequence (P40337 whole entry) above

CWR22R = experiment: Antiproliferative activity against human 22Rv1 cells assessed as reduction in cell viability incubated for 48 hrs by MTT assay; type: functional, cell-based; conditions: 22Rv1, 48 h

Work on Cc1ncsc1-c1ccc([C@@H](C)NC(=O)[C@H]2C[C@H](O)CN2C(=O)[C@H](NC(=O)CCCCCNC(=O)COc2ccccc2-c2csc(N3CCOCC3)n2)C(C)(C)C)cc1 yielded a DC50 [1] of 370 nM and a DC50 [2] of 2000 nM.

Cc1ncsc1-c1ccc([C@H](C)NC(=O)[C@@H]2C[C@@H](O)CN2C(=O)[C@@H](NC(=O)CCCCOc2ccc(CCNC(=O)c3ccc(C(=O)c4c(-c5ccc(O)cc5)sc5cc(O)ccc45)cc3)cc2)C(C)(C)C)cc1 showed an Emax [3] of 98% and an Emax [4] of 98%.

Work on Cc1cc(-c2scnc2C)c(C)cc1CNC(=O)[C@@H]1C[C@@H](O)CN1C(=O)[C@H](NC(=O)C1(C#N)CC1)C(C)(C)C yielded a Kd [5] of 528 nM.

In the case of Cc1ncsc1-c1ccc(CNC(=O)[C@@H]2C[C@@H](O)CN2C(=O)c2cccc(N)c2C)cc1, the IC50 [6] is reported as 10100 nM.

Cc1cc(-c2scnc2C)ccc1[C@H](C)NC(=O)[C@@H]1C[C@@H](O)CN1C(=O)[C@H](NC(=O)C1(C#N)CC1)C(C)(C)C showed a Kd [5] of 86 nM.

For Cc1ncsc1-c1cc2c(cc1F)[C@@H](NC(=O)[C@@H]1C[C@@H](O)CN1C(=O)[C@H](NC(=O)C1(F)CC1)C(C)(C)C)CCCC2, the Kd [5] was 1040 nM.

Cc1ncsc1-c1ccc([C@H](C)NC(=O)[C@@H]2C[C@@H](O)CN2C(=O)[C@H](NC(=O)C2(C#N)CC2)C(C)(C)C)cc1F showed a Kd [5] of 186 nM.

Compound Cc1cc([C@H](C(=O)N2C[C@H](S(=O)(=O)F)C[C@H]2C(=O)N[C@@H](CC(=O)N2CCC(C#Cc3ccc(C(=O)N[C@H]4C(C)(C)[C@H](Oc5ccc(C#N)c(C(F)(F)F)c5)C4(C)C)cc3)CC2)c2ccc(-c3scnc3C)cc2)C(C)C)on1 has an Emax [7] of 54% and a DC50 [8] of 527 nM.

Cc1ncsc1-c1ccc(CNC(=O)[C@@H]2C[C@@H](O)CN2C(=O)[C@H](NC(=O)COCCOCCOc2ccc(-c3ccc4ncnc(Nc5ccc(OCc6cccc(F)c6)c(Cl)c5)c4c3)cc2)C(C)(C)C)cc1 showed a DC50 [9] of 39.2 nM, an Emax [10] of 68.8% and an Emax [11] of 97.6%. The DC50 [12] was 736 nM.

In the case of COc1cccc(/C=C2\Oc3cc(OCC(=O)N4CC(O)C[C@H]4C(=O)O)ccc3C2=O)c1 (stereo partly specified), the IC50 [6] is reported as 2290 nM.

Compound CC(=O)N[C@H](C(=O)N1C[C@H](O)C[C@H]1C(=O)N[C@@H](C)c1ccc(-c2scnc2C)cc1)C(C)(C)C has an IC50 [13] of 130 nM and a Kd [14] of 63 nM.

Cc1cc(CC(=O)N2C[C@H](O)C[C@H]2C(=O)NCc2cccc(Cl)c2)on1 gave an IC50 [15] of 117 nM.

CC(=O)N[C@H](C(=O)N1C[C@H](O)[C@H](F)[C@H]1C(=O)Nc1ccc(-c2scnc2C)cc1)C(C)(C)C gave a DC50 [16] of 1 nM.

With Cc1ncsc1-c1ccc([C@H](C)NC(=O)[C@H]2C[C@H](O)CN2C(=O)[C@H](NC(=O)COCCOCCOCCNC(=O)C[C@@H]2N=C(c3ccc(Cl)cc3)c3c(sc(C)c3C)-n3c(C)nnc32)C(C)(C)C)cc1 the DC50 [17] was 40 nM, the Emax [18] was 100% and the DC50 [19] was 100 nM. The DC50 [20] was 3 nM, the Emax [21] was 98% and the Emax [22] was 100%.

With Cc1ncsc1-c1ccc([C@H](C)NC(=O)[C@@H]2C[C@@H](O)CN2C(=O)[C@@H](NC(=O)COCCOCCOCCNC(=O)C[C@@H]2N=C(c3ccc(Cl)cc3)c3c(sc(C)c3C)-n3c(C)nnc32)C(C)(C)C)cc1 the DC50 [23] was < 5 nM, the Emax [24] was > 99% and the DC50 [25] was < 5 nM. The DC50 [26] was < 5 nM and the EC50 (CWR22R) was 90 nM.
